Reference: patent US12077555B2, “STAT degraders and uses thereof” (Kymera Therapeutics, Inc., priority 2019, dated 2024)

These compounds were tested against STAT3 (Homo sapiens, UniProt P40763) (assay: STAT3 HiBiT degradation assay in transfected A549 cells). Settings: A549, 24 h; read-out: STAT3 HiBiT A549 degradation 24 h: Average external-Abs DC50.
Format: cell-based
Set-up: expressed in transfected cells; host or cells: A549
How it was run: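 Degradation read as HiBiT-tagged STAT3 luminescence (Nano-Glo lytic reagent, 10 min, room temperature) following 24 h compound treatment of transfected A549 cells at 3-fold, 10 points. Percent remaining signal computed against controls and fitted with a four-parameter logistic; DC50 reported as letter bins (A <0.01 to D >1.0 µM).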

STAT3, sequence (P40763 whole entry): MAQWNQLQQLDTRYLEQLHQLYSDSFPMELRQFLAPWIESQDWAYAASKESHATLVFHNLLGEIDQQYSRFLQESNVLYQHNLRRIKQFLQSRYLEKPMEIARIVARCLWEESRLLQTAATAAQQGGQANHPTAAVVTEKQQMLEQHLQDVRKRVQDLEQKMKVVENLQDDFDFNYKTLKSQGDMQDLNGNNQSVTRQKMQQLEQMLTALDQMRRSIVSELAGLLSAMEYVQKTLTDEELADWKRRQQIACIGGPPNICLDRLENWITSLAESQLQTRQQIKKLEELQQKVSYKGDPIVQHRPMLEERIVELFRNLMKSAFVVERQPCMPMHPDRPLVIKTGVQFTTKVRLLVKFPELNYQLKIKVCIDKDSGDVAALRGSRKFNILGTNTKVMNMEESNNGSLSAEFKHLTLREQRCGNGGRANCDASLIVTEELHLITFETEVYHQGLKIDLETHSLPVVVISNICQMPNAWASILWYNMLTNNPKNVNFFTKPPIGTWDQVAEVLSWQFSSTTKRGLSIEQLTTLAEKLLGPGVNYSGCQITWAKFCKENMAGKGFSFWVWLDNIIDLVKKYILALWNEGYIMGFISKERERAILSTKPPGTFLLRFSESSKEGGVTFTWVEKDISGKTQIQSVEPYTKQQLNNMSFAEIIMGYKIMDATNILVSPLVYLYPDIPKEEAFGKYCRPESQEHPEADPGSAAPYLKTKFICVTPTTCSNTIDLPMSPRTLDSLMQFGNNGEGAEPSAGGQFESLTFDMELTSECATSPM

SMILES | DC50 [nM]
Cn1c(=O)n(C2CCC(=O)NC2=O)c2ccc(CC[C@H]3CC[C@H](C(=O)N4CC[C@H]5CC[C@@H](C(=O)N[C@@H](CCC(N)=O)C(=O)NC(c6ccccc6)c6ccccc6)N5C(=O)[C@@H](NC(=O)c5cc6cc(C(=O)P(=O)(O)O)ccc6[nH]5)C4)CC3)cc21 (stereo partly drawn) [Compound I-203, 2-[[(5S,8S,10aR)-8-[[(1S)-3-carbamoyl-1-(diphenylmethylcarbamoyl)propyl]carbamoyl]-6-oxo-3-[(1r,4r)-4-[2-[1-(2,6-dioxopiperidin-3-yl)-3-methyl-2-oxo-1,3-benzodiazol-5-yl]ethyl]cyclohexanecarbonyl]-octahydropyrrolo[1,2-a][1,5]diazocin-5-yl]carbamoyl]-1H-indole-5-carbonylphosphonic acid] | 10 to 100
Cc1ncsc1-c1ccc([C@H](C)NC(=O)[C@@H]2C[C@@H](O)CN2C(=O)[C@@H](NC(=O)CCCCCc2cc(Cl)cc(OC[C@@H](NC(=O)[C@@H]3Cc4cccc5c4N3C(=O)[C@@H](NC(=O)c3cc4cc(C(=O)P(=O)(O)O)ccc4[nH]3)CC5)C(N)=O)c2)C(C)(C)C)cc1 [Compound I-204, 2-[[(2S,11S)-2-[[(2S)-4-carbamoyl-1-[3-chloro-5-(5-[[(2S)-1-[(2S,4R)-4-hydroxy-2-[[(1S)-1-[4-(4-methyl-1,3-thiazol-5-yl)phenyl]ethyl]carbamoyl]prrolidin-1-yl]-3,3-dimethyl-1-oxobutan-2-yl]carbamoyl]pentyl)phenoxy]butan-2-yl]carbamoyl]-12-oxo-1-azatricyclo[6.4.1.0^[4,13]]trideca-4(13),5,7-trien-11-yl]carbamoyl]-1H-indole-5-carbonylphosphonic acid] | 10 to 100
Cc1ncsc1-c1ccc([C@H](C)NC(=O)[C@@H]2C[C@@H](O)CN2C(=O)[C@@H](NC(=O)CCCCCc2cccc(OC[C@@H](NC(=O)[C@@H]3Cc4cccc5c4N3C(=O)[C@@H](NC(=O)c3cc4cc(C(=O)P(=O)(O)O)ccc4[nH]3)CC5)C(N)=O)c2C)C(C)(C)C)cc1 [Compound I-205, diammonium 2-[[(2S,11S)-2-[[(2S)-4-carbamoyl-1-[3-[5-[[(2S)-1-[(2S,4R)-4-hydroxy-2-[[(1S)-1-[4-[4-methyl-1,3-thiazol-5-yl)phenyl]ethyl]carbamoyl]pyrrolidin-1-yl]-3,3-dimethyl-1-oxobutan-2-yl]carbamoyl]pentyl)-2-methylphenoxy]butan-2-yl]carbamoyl]-12-oxo-1-azatricyclo[6.4.1.0^[4,13]]trideca-4(13),5,7-trien-11-yl]carbamoyl]-1H-indole-5-carbonylphosphonate] | 10 to 100
Cc1ncsc1-c1ccc(C2(NC(=O)[C@@H]3C[C@@H](O)CN3C(=O)[C@@H](NC(=O)CCCCCc3cccc(OC[C@H](CCC(N)=O)NC(=O)[C@@H]4Cc5cccc6c5N4C(=O)[C@@H](NC(=O)c4cc5cc(C(=O)P(=O)(O)O)ccc5[nH]4)CC6)c3)C(C)(C)C)CC2)cc1 [Compound I-206, diammonium 2-[[(2S,11S)-2-[[(2S)-4-carbamoyl-1-[3-(5-[[(2S)-1-[(2S,4R)-4-hydroxy-2-([1-[4-[4-methyl-1,3-thiazo1-5-yl)phenyl]cyclopropyl]carbamoyl)pyrrolidin-1-yl]-3,3-dimethyl-1-oxobutan-2-yl]carbamoyl]pentyl)phenoxy]butan-2-yl]carbamoyl]-12-oxo-1-azatricyclo[6.4.1.0^[4,13]]trideca-4(13),5,7-trien-11-yl]carbamoyl]-1H-indole-5-carbonylphosphonate] | 10 to 100
Cc1ncsc1-c1ccc([C@H](C)NC(=O)[C@@H]2C[C@@H](O)CN2C(=O)[C@@H](NC(=O)CCCCCc2ccc(F)c(OC[C@H](CCC(N)=O)NC(=O)[C@@H]3Cc4cccc5c4N3C(=O)[C@@H](NC(=O)c3cc4cc(C(=O)P(=O)(O)O)ccc4[nH]3)CC5)c2)C(C)(C)C)cc1 [Compound I-207] | 100 to 1000
Cn1c(=O)n(C2CCC(=O)NC2=O)c2ccc(C3CC(CCCCC(=O)N4CC[C@H]5CC[C@@H](C(=O)N[C@@H](CCC(N)=O)C(=O)NC(c6ccccc6)c6ccccc6)N5C(=O)[C@@H](NC(=O)c5cc6cc(C(=O)P(=O)(O)O)ccc6[nH]5)C4)C3)cc21 (stereo partly drawn) [Compound I-208, 2-[[(5S,8S,10aR)-8-[[(1S)-3-carbamoyl-1-(diphenylmethylcarbamoyl)propyl]carbamoyl]-3-(5-[3-[1-(2,6-dioxopiperidin-3-yl)-3-methyl-2-oxo-1,3-benzodiazol-5-yl]cyclobutyl]pentanoyl)-6-oxo-octahydropyrrolo[1,2-a][1,5]diazocin-5-yl]carbamoyl]-1H-indole-5-carbonylphosphonic acid] | 100 to 1000
Cc1ncsc1-c1ccc([C@H](C)NC(=O)[C@@H]2C[C@@H](O)CN2C(=O)[C@@H](NC(=O)CCCCCc2cccc(NC(=O)[C@H](CCC(N)=O)NC(=O)[C@@H]3Cc4cccc5c4N3C(=O)[C@@H](NC(=O)c3cc4cc(C(=O)P(=O)(O)O)ccc4[nH]3)CC5)c2)C(C)(C)C)cc1 [Compound I-209] | 10 to 100
Cc1ncsc1-c1ccc(CNC(=O)[C@@H]2C[C@@H](O)CN2C(=O)[C@@H](NC(=O)CCCCCc2cccc(O[C@H](C)[C@H](CCC(N)=O)NC(=O)[C@@H]3Cc4cccc5c4N3C(=O)[C@@H](NC(=O)c3cc4cc(C(=O)P(=O)(O)O)ccc4[nH]3)CC5)c2)C(C)(C)C)cc1 [Compound I-210, 2-[[(2S,11S)-2-[[(3S,4R)-1-carbamoyl-4-[3-(5-[[(2S)-1-[(2S,4R)-4-hydroxy-2-([[4-(4-methyl-1,3-thiazol-5-yl)phenyl]methyl]carbamoyl)pyrrolidin-1-yl]-3,3-dimethyl-1-oxobutan-2-yl]carbamoyl]pentyl)phenoxy]pentan-3-yl]carbamoyl]-12-oxo-1-azatricyclo[6.4.1.0^[4,13]]trideca-4(13),5,7-trien-11-yl]carbamoyl]-1H-indole-5-carbonylphosphonic acid] | > 1000
Cc1ncsc1-c1ccc([C@H](C)NC(=O)[C@@H]2C[C@@H](O)CN2C(=O)[C@@H](NC(=O)CCCCc2cccc(OC[C@H](CCC(N)=O)NC(=O)[C@@H]3Cc4cccc5c4N3C(=O)[C@@H](NC(=O)c3cc4cc(C(=O)P(=O)(O)O)ccc4[nH]3)CC5)c2)C(C)(C)C)cc1 [Compound I-211, diammonium 2-[[(2S,11S)-2-[[(2S)-4-carbamoyl-1-[3-(4-[[(2S)-1-[(2S,4R)-4-hydroxy-2-[[(1S)-1-[4-(4-methyl-1,3-thiazol-5-yl)phenyl]ethyl]carbamoyl]pyrrolidin-1-yl]-3,3-dimethyl-1-oxobutan-2-yl]carbamoyl]butyl)phenoxy]butan-2-yl]carbamoyl]-12-oxo-1-azatricyclo[6.4.1.0^[4,13]]trideca-4(13),5,7-trien-11-yl]carbamoyl]-1H-indole-5-carbonylphosphonate] | 10 to 100
Cc1ccc(OC[C@H](CCC(N)=O)NC(=O)[C@@H]2Cc3cccc4c3N2C(=O)[C@@H](NC(=O)c2cc3cc(C(=O)P(=O)(O)O)ccc3[nH]2)CC4)cc1CCCCCC(=O)N[C@H](C(=O)N1C[C@H](O)C[C@H]1C(=O)N[C@@H](C)c1ccc(-c2scnc2C)cc1)C(C)(C)C [Compound I-212, 2-[[(2S,11S)-2-[[(2S)-4-carbamoyl-1-[3-(5-[[(2S)-1-[(2S,4R)-4-hydroxy-2-[[(1S)-1-[4-(4-methyl-1,3-thiazol-5-yl)phenyl]ethyl]carbamoyl]pyrrolidin-1-yl]-3,3-dimethyl-1-oxobutan-2-yl]carbamoyl]pentyl)-4-methylphenoxy]butan-2-yl]carbamoyl]-12-oxo-1-azatricyclo[6.4.1.0^[4,13]]trideca-4(13),5,7-trien-11-yl]carbamoyl]-1H-indole-5-carbonylphosphonic acid] | 10 to 100
Cc1cc(CCCCCC(=O)N[C@H](C(=O)N2C[C@H](O)C[C@H]2C(=O)N[C@@H](C)c2ccc(-c3scnc3C)cc2)C(C)(C)C)cc(OC[C@H](CCC(N)=O)NC(=O)[C@@H]2Cc3cccc4c3N2C(=O)[C@@H](NC(=O)c2cc3cc(C(=O)P(=O)(O)O)ccc3[nH]2)CC4)c1 [Compound I-213, 2-[[(2S,11S)-2-[[(2S)-4-carbamoyl-1-[3-(5-[[(2S)-1-[(2S,4R)-4-hydroxy-2-[[(1S)-1-[4-(4-methyl-1,3-thiazol-5-yl)phenyl]ethyl]carbamoyl]pyrrolidin-1-yl]-3,3-dimethyl-1-oxobutan-2-yl]carbamoyl]pentyl)-5-methylphenoxy]butan-2-yl]carbamoyl]-12-oxo-1-azatricyclo[6.4.1.0^[4,13]]trideca-4(13),5,7-trien-11-yl]carbamoyl]-1H-indole-5-carbonylphosphonic acid] | < 10
Cc1ccc(CCCCCC(=O)N[C@H](C(=O)N2C[C@H](O)C[C@H]2C(=O)N[C@@H](C)c2ccc(-c3scnc3C)cc2)C(C)(C)C)cc1OC[C@H](CCC(N)=O)NC(=O)[C@@H]1Cc2cccc3c2N1C(=O)[C@@H](NC(=O)c1cc2cc(C(=O)P(=O)(O)O)ccc2[nH]1)CC3 [Compound I-214, 2-[[(2S,11S)-2-[[(2S)-4-carbamoyl-1-[5-(5-[[(2S)-1-[(2S,4R)-4-hydroxy-2-[[(1S)-1-[4-(4-methyl-1,3-thiazol-5-yl)phenyl]ethyl]carbamoyl]pyrrolidin-1-yl]-3,3-dimethyl-1-oxobutan-2-yl]carbamoyl]pentyl)-2-methylphenoxy]butan-2-yl]carbamoyl]-12-oxo-1-azatricyclo[6.4.1.0^[4,13]]trideca-4(13),5,7-trien-11-yl]carbamoyl]-1H-indole-5-carbonylphosphonic acid] | > 1000
Cc1ncsc1-c1ccc([C@H](C)NC(=O)[C@@H]2C[C@@H](O)CN2C(=O)[C@@H](NC(=O)CCCCCc2cc(OC[C@H](CCC(N)=O)NC(=O)[C@@H]3Cc4cccc5c4N3C(=O)[C@@H](NC(=O)c3cc4cc(C(=O)P(=O)(O)O)ccc4[nH]3)CC5)ccc2F)C(C)(C)C)cc1 [Compound I-215] | 10 to 100
